Assay results published in PubChem BioAssay (NCI).
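Dose response: 5 concentrations. Exposure: 48 h. Format: 96-well plates. Endpoint: linear interpolation; highest concentration if not reached. GI50 = concentration required for 50% inhibition of growth. TGI: total growth inhibition.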

Experiments:
Experiment in all cases: inhibition of tumour cell growth, NCI panel, 48 h
[1] = system: HCT-15 colon
[2] = system: SR leukemia
[3] = system: OVCAR-8 ovarian
[4] = system: RXF 393 renal
[5] = system: K-562 leukemia
[6] = system: SF-295 CNS
[7] = system: CCRF-CEM leukemia
[8] = system: 786-0 renal
[9] = system: HOP-92 NSCLC
[10] = system: RPMI-8226 leukemia
[11] = system: BT-549 breast
[12] = system: SNB-19 CNS
[13] = system: SF-268 CNS
[14] = system: HCT-116 colon
[15] = system: T-47D breast
[16] = system: DU-145 prostate
[17] = system: NCI-H460 lung
[18] = system: MDA-MB-435
[19] = system: MDA-MB-231 breast
[20] = system: A549 NSCLC
[21] = system: IGROV1 ovarian
[22] = system: NCI-H522 lung
[23] = system: LOX IMVI melanoma
[24] = system: NCI-H23 lung
[25] = system: HCC-2998 colon
[26] = system: NCI/ADR-RES ovarian
[27] = system: HS 578T breast
[28] = system: OVCAR-4 ovarian
[29] = system: UO-31 renal
[30] = system: HL-60(TB) leukemia
[31] = system: SW-620 colon
[32] = system: TK-10 renal
[33] = system: ACHN renal
[34] = system: OVCAR-3 ovarian
[35] = system: SK-MEL-28 melanoma
[36] = system: MCF7 breast
[37] = system: MALME-3M melanoma
[38] = system: SN12C renal
[39] = system: COLO 205 colon
[40] = system: U251 CNS
[41] = system: SF-539 CNS
[42] = system: M14 melanoma
[43] = system: NCI-H226 lung
[44] = system: UACC-62 melanoma
[45] = system: SNB-75 CNS
[46] = system: EKVX NSCLC
[47] = system: SK-OV-3 ovarian
[48] = system: MOLT-4 leukemia
[49] = system: SK-MEL-2 melanoma
[50] = system: PC-3 prostate
[51] = system: HOP-62 NSCLC
[52] = system: KM12 colon
[53] = system: SK-MEL-5 melanoma
[54] = system: CAKI-1 renal
[55] = system: OVCAR-5 ovarian
[56] = system: HT29 colon
[57] = system: UACC-257 melanoma

COc1cc2c(cc1OC)C(CCc1ccc(Cl)cc1)N(C)CC2 (centres undefined)
GI50 [1]: 30.2 µM | TGI [1]: > 100 µM | GI50 [2]: 28.4 µM | TGI [2]: 63.4 µM | GI50 [3]: 32.6 µM | TGI [3]: > 100 µM | GI50 [4]: 17.8 µM | TGI [4]: 58.3 µM | GI50 [5]: 24.7 µM | TGI [5]: 66.1 µM | GI50 [6]: 9.32 µM | TGI [6]: 27 µM | GI50 [7]: 29.1 µM | TGI [7]: > 100 µM | GI50 [8]: 17.4 µM | TGI [8]: 48.9 µM | GI50 [9]: 13.6 µM | TGI [9]: 92.7 µM | GI50 [10]: 24.9 µM | TGI [10]: > 100 µM | GI50 [11]: 33.5 µM | TGI [11]: > 100 µM | GI50 [12]: 37.1 µM | TGI [12]: > 100 µM | GI50 [13]: 35 µM | TGI [13]: > 100 µM | GI50 [14]: 13.8 µM | TGI [14]: 52.9 µM | GI50 [15]: 23.8 µM | TGI [15]: 76.8 µM | GI50 [16]: 51.9 µM | TGI [16]: > 100 µM | GI50 [17]: 17.8 µM | TGI [17]: 40.2 µM | GI50 [18]: 16.3 µM | TGI [18]: 41.2 µM | GI50 [19]: 16.3 µM | TGI [19]: 39.1 µM | GI50 [20]: 45.2 µM | TGI [20]: > 100 µM | GI50 [21]: 36.9 µM | TGI [21]: > 100 µM | GI50 [22]: 20 µM | TGI [22]: 38.6 µM | GI50 [23]: 15 µM | TGI [23]: 30.8 µM | GI50 [24]: 30.1 µM | TGI [24]: > 100 µM | GI50 [25]: 16.4 µM | TGI [25]: 31.1 µM | GI50 [26]: 17.7 µM | TGI [26]: 39.4 µM | GI50 [27]: 18.3 µM | TGI [27]: 51.4 µM | GI50 [28]: 33.9 µM | TGI [28]: > 100 µM | GI50 [29]: 20.6 µM | TGI [29]: > 100 µM | GI50 [30]: 17.2 µM | TGI [30]: 44.3 µM | GI50 [31]: 19.3 µM | TGI [31]: 45.4 µM | GI50 [32]: 17 µM | TGI [32]: 42.2 µM | GI50 [33]: 25.7 µM | TGI [33]: 92 µM | GI50 [34]: 33.3 µM | TGI [34]: > 100 µM | GI50 [35]: 20.1 µM | TGI [35]: 46.9 µM | GI50 [36]: 21.2 µM | TGI [36]: 47 µM | GI50 [37]: 21.6 µM | TGI [37]: 46.5 µM | GI50 [38]: 39.9 µM | TGI [38]: > 100 µM | GI50 [39]: 17.6 µM | TGI [39]: 34.6 µM | GI50 [40]: 22.8 µM | TGI [40]: 64.3 µM | GI50 [41]: 17.1 µM | TGI [41]: 39 µM | GI50 [42]: 17.3 µM | TGI [42]: 37.7 µM | GI50 [43]: 58.6 µM | TGI [43]: > 100 µM | GI50 [44]: 20.1 µM | TGI [44]: 44.5 µM | GI50 [45]: 11.9 µM | TGI [45]: 43.5 µM | GI50 [46]: 16.7 µM | TGI [46]: 81 µM | GI50 [47]: 32.2 µM | TGI [47]: > 100 µM | GI50 [48]: 35.7 µM | TGI [48]: 94.9 µM | GI50 [49]: 19.7 µM | TGI [49]: 37.1 µM | GI50 [50]: 20.1 µM | TGI [50]: > 100 µM | GI50 [51]: 32.9 µM | TGI [51]: > 100 µM | GI50 [52]: 19.5 µM | TGI [52]: 38.1 µM | GI50 [53]: 14.4 µM | TGI [53]: 27.6 µM | GI50 [54]: 10.7 µM | TGI [54]: 31.7 µM | GI50 [55]: 19.6 µM | TGI [55]: 61.7 µM | GI50 [56]: 14.2 µM | TGI [56]: 86 µM | GI50 [57]: 27.2 µM | TGI [57]: 65.9 µM
